# Measurements from PMC9050923, “6,N^2-Diaryl-1,3,5-triazine-2,4-diamines: synthesis, antiproliferative activity and 3D-QSAR modeling” (RSC Advances, 2020).
# Assays:
# Type in all cases: cell-based
# [1] = system: MCF-7; experiment: MTT assay, MCF-7 breast cancer cells; settings: Homo sapiens; for viability at 10 µM: MCF7, 10 μM, 72 h after the treatment, mean of three independent experiments, read-out: Percentage of cell viability MCF-7
# Experimental: (§1) The prepared compounds 1–126 were tested on three breast cancer cell lines namely, MDA-MB231, SKBR-3 and MCF-7 using MTT assay. SKBR-3 and MCF-7 cell lines are estrogen and progesterone hormone positive cell lines often used as a model for the hormone therapy.[18] MDA-MB231 is triple negative breast cancer cell line, which is negative to estrogen and progesterone receptors and human epidermal growth factor receptor 2, a perfect model for chemotherapy.[18] Initially, all the prepared compounds 1–126 were tested on these three cancer cell lines at the screening concentration (10 μM) and percentage of cell viability was calculated 72 h after the treatment (Table 1).
# (§2) The growth inhibitory effect of the compounds was determined on breast tumor cell line (MDA-MB231, SKBR-3 and MCF-7) at different concentrations with methotrexate and nilotinib as positive controls (Table 2).
# (§3) The cytotoxic activity of 6,N^2-diaryl-1,3,5-triazine-2,4-diamines (1–126) was evaluated against three breast carcinoma cell lines (MDA-MB231, SKBR-3, and MCF-7) and normal breast cell line (MCF-10A) by MTT assay.[22] All cells were obtained from the American Type Culture Collection and were grown in 10% fetal bovine serum and 1% pen-strep antibiotic supplemented media (DMEM for MDA-MB231 and SKBR-3, RPMI for MCF-7, and MEGM for MCF-10A). For MTT assay, 20 000 to 75 000 cells per mL (based on the doubling time for each cell line) were seeded in 96 well plates and incubated for 24 h at 37 °C in 5% CO2 incubator. Then, compounds at different concentrations were added followed by the incubation at 37 °C for 72 h. After that, MTT solution (0.5 mg mL^−1) was added and the plates were incubated for another 4 h. The supernatant was then discarded and 100 μL of DMSO was added to each well. The plates were then read by Tecan NanoQuant (model: infinite m200 pro) plate reader and absorbance was measured at 570 nm. GI50 values were calculated using sigmoidal concentration–response curves (see ESI ^†) generated using the GraphPad Prism 7 program. Three independent experiments were carried out and the data were represented as mean of the three experiments.
# [2] = system: SKBR-3; experiment: MTT assay, SKBR-3 breast cancer cells; settings: Homo sapiens, SK-BR-3, MTT; for viability at 10 µM: 72 h after the treatment, mean of three independent experiments, read-out: Percentage of cell viability SKBR-3
# Experimental: as §1, §2, §3
# [3] = system: MDA-MB231; experiment: MTT assay, MDA-MB231 breast cancer cells; settings: Homo sapiens, MDA-MB-231, MTT; for viability at 10 µM: 72 h after the treatment, mean of three independent experiments, read-out: Percentage of cell viability MDA-MB231; for GI50: 72 h, mean of three independent experiments ± SEM, read-out: GI50 (μM) ± SEM MDA-MB231
# Experimental: as §1, §2, §3
SMILES,viability at 10 µM [1] [%],viability at 10 µM [2] [%],viability at 10 µM [3] [%],"GI50 ([1]; MCF7, 72 h, mean of three independent experiments ± SEM) [µM]",GI50 [3] [µM],"GI50 ([2]; 72 h, mean of three independent experiments ± SEM) [µM]"
Nc1nc(Nc2ccccc2)nc(-c2ccccc2)n1 [Compound 1],90,81,87,–,–,–
"Nc1nc(Nc2ccccc2Cl)nc(-c2ccccc2)n1 [Compound 4, N ^2-(2-Chlorophenyl)-6-phenyl-1,3,5-triazine-2,4-diamine]",81,88,72,–,–,–
Nc1nc(Nc2ccc(Cl)cc2)nc(-c2ccccc2)n1 [Compound 5],100,94,65,–,–,–
Nc1nc(Nc2ccc(Br)cc2)nc(-c2ccccc2)n1 [Compound 6],100,97,65,–,–,–
Cc1ccc(Nc2nc(N)nc(-c3ccccc3)n2)cc1 [Compound 7],87,87,98,–,–,–
COc1ccccc1Nc1nc(N)nc(-c2ccccc2)n1 [Compound 8],91,97,78,–,–,–
COc1ccc(Nc2nc(N)nc(-c3ccccc3)n2)cc1 [Compound 9],84,96,98,–,–,–
Nc1nc(Nc2ccc(OC(F)(F)F)cc2)nc(-c2ccccc2)n1 [Compound 10],92,86,96,–,–,–
CC(C)c1ccc(Nc2nc(N)nc(-c3ccccc3)n2)cc1 [Compound 11],99,86,99,–,–,–
Nc1nc(Nc2cccnc2)nc(-c2ccccc2)n1 [Compound 12],87,78,59,–,–,–
Nc1nc(Nc2ccccc2)nc(-c2cccc(F)c2)n1 [Compound 13],89,100,100,–,–,–
Nc1nc(Nc2ccc(Cl)cc2)nc(-c2cccc(F)c2)n1 [Compound 15],89,100,100,–,–,–
CC(C)c1ccc(Nc2nc(N)nc(-c3cccc(F)c3)n2)cc1 [Compound 20],92,100,100,–,–,–
Nc1nc(Nc2ccccc2)nc(-c2ccc(F)cc2)n1 [Compound 21],100,94,83,–,–,–
Nc1nc(Nc2ccccc2F)nc(-c2ccc(F)cc2)n1 [Compound 22],100,85,83,–,–,–
Nc1nc(Nc2ccc(F)cc2)nc(-c2ccc(F)cc2)n1 [Compound 23],93,100,81,–,–,–
Nc1nc(Nc2ccccc2Cl)nc(-c2ccc(F)cc2)n1 [Compound 24],91,75,75,–,–,–
Nc1nc(Nc2cccc(Cl)c2)nc(-c2ccc(F)cc2)n1 [Compound 25],95,88,73,–,–,–
Nc1nc(Nc2ccc(Cl)cc2)nc(-c2ccc(F)cc2)n1 [Compound 26],87,98,67,–,–,–
Nc1nc(Nc2ccc(Br)cc2)nc(-c2ccc(F)cc2)n1 [Compound 27],94,100,96,–,–,–
Cc1ccc(Nc2nc(N)nc(-c3ccc(F)cc3)n2)cc1 [Compound 28],88,90,99,–,–,–
COc1ccccc1Nc1nc(N)nc(-c2ccc(F)cc2)n1 [Compound 29],96,81,60,–,–,–
Nc1nc(Nc2ccc(OC(F)(F)F)cc2)nc(-c2ccc(F)cc2)n1 [Compound 31],87,92,88,–,–,–
CC(C)c1ccc(Nc2nc(N)nc(-c3ccc(F)cc3)n2)cc1 [Compound 32],84,100,94,–,–,–

SMILES,viability at 10 µM [1] [%],viability at 10 µM [2] [%],viability at 10 µM [3] [%],"GI50 ([1]; MCF7, 72 h, mean of three independent experiments ± SEM) [µM]",GI50 [3] [µM],"GI50 ([2]; 72 h, mean of three independent experiments ± SEM) [µM]"
Nc1nc(Nc2cccnc2)nc(-c2ccc(F)cc2)n1 [Compound 33],85,87,74,–,–,–
Nc1nc(Nc2ccccc2F)nc(-c2ccc(Cl)cc2)n1 [Compound 35],93,99,82,–,–,–
Nc1nc(Nc2ccccc2Cl)nc(-c2ccc(Cl)cc2)n1 [Compound 37],99,89,99,–,–,–
Nc1nc(Nc2cccc(Cl)c2)nc(-c2ccc(Cl)cc2)n1 [Compound 38],84,92,99,–,–,–
Nc1nc(Nc2ccc(Cl)cc2)nc(-c2ccc(Cl)cc2)n1 [Compound 39],100,100,97,–,–,–
Nc1nc(Nc2ccc(Br)cc2)nc(-c2ccc(Cl)cc2)n1 [Compound 40],92,100,80,–,–,–
COc1ccccc1Nc1nc(N)nc(-c2ccc(Cl)cc2)n1 [Compound 41],100,89,83,–,–,–
COc1ccc(Nc2nc(N)nc(-c3ccc(Cl)cc3)n2)cc1 [Compound 42],85,90,61,–,–,–
Nc1nc(Nc2ccc(OC(F)(F)F)cc2)nc(-c2ccc(Cl)cc2)n1 [Compound 43],100,83,93,–,–,–
CC(C)c1ccc(Nc2nc(N)nc(-c3ccc(Cl)cc3)n2)cc1 [Compound 44],96,97,100,–,–,–
Nc1nc(Nc2cccnc2)nc(-c2ccc(Cl)cc2)n1 [Compound 45],89,74,99,–,–,–
Nc1nc(Nc2ccccc2F)nc(-c2ccc(Br)cc2)n1 [Compound 46],100,91,75,–,–,–
Nc1nc(Nc2ccc(F)cc2)nc(-c2ccc(Br)cc2)n1 [Compound 47],100,98,58,–,–,–
Nc1nc(Nc2ccccc2Cl)nc(-c2ccc(Br)cc2)n1 [Compound 48],100,93,90,–,–,–
Nc1nc(Nc2ccc(Cl)cc2)nc(-c2ccc(Br)cc2)n1 [Compound 49],100,100,96,–,–,–
Cc1ccc(Nc2nc(N)nc(-c3ccc(Br)cc3)n2)cc1 [Compound 50],88,93,55,–,–,–
COc1ccccc1Nc1nc(N)nc(-c2ccc(Br)cc2)n1 [Compound 51],96,89,88,–,–,–
COc1ccc(Nc2nc(N)nc(-c3ccc(Br)cc3)n2)cc1 [Compound 52],100,91,56,–,–,–
"Cc1cccc(-c2nc(N)nc(Nc3ccc(F)cc3)n2)c1 [Compound 53, N ^2-(4-Fluorophenyl)-6-(3-methylphenyl)-1,3,5-triazine-2,4-diamine]",78,100,100,–,–,–
Cc1cccc(-c2nc(N)nc(Nc3ccc(Cl)cc3)n2)c1 [Compound 54],76,93,100,–,–,–
Cc1cccc(-c2nc(N)nc(Nc3ccc(Br)cc3)n2)c1 [Compound 55],75,96,83,–,–,–
"CN(Cc1cnc2nc(N)nc(N)c2n1)c1ccc(C(=O)N[C@@H](CCC(=O)O)C(=O)O)cc1 [Methotrexate, reference compound]",–,–,–,5.79 ± 0.47,0.01 ± 0.001,–
"Cc1cn(-c2cc(NC(=O)c3ccc(C)c(Nc4nccc(-c5cccnc5)n4)c3)cc(C(F)(F)F)c2)cn1 [Nilotinib, reference compound]",–,–,–,–,0.04 ± 0.001,9.6 ± 0.51
